Reference: paper PMC9697818, “Design, Synthesis and Biological Assessment of Rhodanine-Linked Benzenesulfonamide Derivatives as Selective and Potent Human Carbonic Anhydrase Inhibitors” (Molecules, 2022)

Assays:
Assay in all cases: stopped-flow CO2 hydration assay
Type in all cases: biochemical
hCA II = target: T1, hCA II (Homo sapiens, UniProt P00918)
T1 construct: gene CA2; recombinant, cytosolic isoform
Procedure, shortened: (§1)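 Inhibition of recombinant human carbonic anhydrase isozymes was measured by stopped-flow following the enzyme-catalysed CO2 hydration for 5–10 s. Assays used 0.2 mM Phenol Red read at 557 nm, 10 mM Hepes (pH 7.4), 10 mM NaClO4, CO2-saturated water at 25 °C as substrate and 5–12 nM enzyme, with inhibitor preincubated with enzyme for 10 min at room temperature. Inhibitor stocks of 10 mM in DMSO-water 1:1 were diluted down to 0.01 nM in assay buffer, using at least seven concentrations. Inhibition constants (Ki) came from non-linear least-squares fitting with the Cheng–Prusoff equation and are means of at least three determinations.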

hCA XII = target: T2, hCA XII (Homo sapiens, UniProt O43570)
T2 construct: gene CA12; recombinant, tumor-associated transmembrane isoform
Procedure, shortened: as §1

hCA I = target: T3, hCA I (Homo sapiens, UniProt P00915)
T3 construct: gene CA1; recombinant, cytosolic isoform
Procedure, shortened: as §1

hCA IX = target: T4, hCA IX (Homo sapiens, UniProt Q16790)
T4 construct: gene CA9; recombinant, tumor-associated transmembrane isoform
Procedure, shortened: as §1

T2 sequence (O43570 30-289 limits assumed): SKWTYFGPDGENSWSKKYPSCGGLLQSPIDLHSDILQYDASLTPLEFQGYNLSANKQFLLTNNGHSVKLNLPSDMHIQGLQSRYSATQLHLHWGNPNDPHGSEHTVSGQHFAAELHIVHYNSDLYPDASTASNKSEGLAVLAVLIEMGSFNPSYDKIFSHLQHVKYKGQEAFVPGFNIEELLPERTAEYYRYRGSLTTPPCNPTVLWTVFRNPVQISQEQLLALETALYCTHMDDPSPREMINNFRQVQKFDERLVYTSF
T3 sequence (P00915 2-261): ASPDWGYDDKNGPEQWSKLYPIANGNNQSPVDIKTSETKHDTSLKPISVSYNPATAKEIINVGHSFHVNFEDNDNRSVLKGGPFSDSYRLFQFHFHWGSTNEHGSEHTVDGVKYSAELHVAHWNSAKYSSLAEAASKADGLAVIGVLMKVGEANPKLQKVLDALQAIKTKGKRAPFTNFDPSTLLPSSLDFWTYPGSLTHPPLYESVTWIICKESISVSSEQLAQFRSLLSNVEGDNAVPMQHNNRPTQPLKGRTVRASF

Structure (SMILES)	Ki (hCA II)	Ki (hCA XII)	Ki (hCA I)	Ki (hCA IX)
COc1ccc(/C=C2/SC(=S)N(CC(=O)Nc3ccc(S(N)(=O)=O)cc3)C2=O)cc1 [7k, (E)-2-(5-(4-Methoxybenzylidene)-4-oxo-2-thioxothiazolidin-3-yl)-N-(4-sulfamoylphenyl)acetamide]	12.7 nM	58.2 nM	78.6 nM	9.3 nM
NS(=O)(=O)c1ccc(NC(=O)CN2C(=O)/C(=C\c3ccccc3F)SC2=S)cc1 [7d, (E)-2-(5-(2-Fluorobenzylidene)-4-oxo-2-thioxothiazolidin-3-yl)-N-(4-sulfamoylphenyl)acetamide]	140 nM	65.4 nM	224 nM	14.3 nM
NS(=O)(=O)c1ccc(NC(=O)CN2C(=O)/C(=C\c3ccccc3)SC2=S)cc1 [7a, (E)-2-(5-Benzylidene-4-oxo-2-thioxothiazolidin-3-yl)-N-(4-sulfamoylphenyl)-acetamide]	69.2 nM	32.5 nM	185 nM	8.7 nM
COc1cc(OC)c(/C=C2/SC(=S)N(CC(=O)Nc3ccc(S(N)(=O)=O)cc3)C2=O)c(OC)c1 [7q, (E)-2-(4-Oxo-2-thioxo-5-(2,4,6-trimethoxybenzylidene)thiazolidin-3-yl)-N-(4-sulfamoylphenyl)acetamide]	53.1 nM	26.3 nM	298 nM	23.6 nM
COc1cc(OC)c(OC)cc1/C=C1/SC(=S)N(CC(=O)Nc2ccc(S(N)(=O)=O)cc2)C1=O [7o, (E)-2-(4-Oxo-2-thioxo-5-(2,4,5-trimethoxybenzylidene)thiazolidin-3-yl)-N-(4-sulfamoylphenyl)acetamide]	176 nM	9.5 nM	339 nM	34.7 nM
COc1cccc(/C=C2/SC(=S)N(CC(=O)Nc3ccc(S(N)(=O)=O)cc3)C2=O)c1 [7j, (E)-2-(5-(3-Methoxybenzylidene)-4-oxo-2-thioxothiazolidin-3-yl)-N-(4-sulfamoylphenyl)acetamide]	46.1 nM	73.6 nM	228 nM	15.8 nM
N#Cc1ccc(/C=C2/SC(=S)N(CC(=O)Nc3ccc(S(N)(=O)=O)cc3)C2=O)cc1 [7i, (E)-2-(5-(4-Cyanobenzylidene)-4-oxo-2-thioxothiazolidin-3-yl)-N-(4-sulfamoylphenyl)acetamide]	56.6 nM	9 nM	125 nM	7.3 nM
NS(=O)(=O)c1ccc(NC(=O)CN2C(=O)/C(=C\c3ccc(Cl)cc3)SC2=S)cc1 [7b, (E)-2-(5-(4-Chlorobenzylidene)-4-oxo-2-thioxothiazolidin-3-yl)-N-(4-sulfamoylphenyl)acetamide]	51.6 nM	9.1 nM	349 nM	35.7 nM
COc1ccc(/C=C2/SC(=S)N(CC(=O)Nc3ccc(S(N)(=O)=O)cc3)C2=O)cc1OC [7n, (E)-2-(5-(3,4-Dimethoxybenzylidene)-4-oxo-2-thioxothiazolidin-3-yl)-N-(4-sulfamoylphenyl)acetamide]	15.4 nM	38.5 nM	84 nM	8.1 nM
C=CCOc1ccc(/C=C2/SC(=S)N(CC(=O)Nc3ccc(S(N)(=O)=O)cc3)C2=O)cc1 [7f, (E)-2-(5-(4-(Allyloxy)benzylidene)-4-oxo-2-thioxothiazolidin-3-yl)-N-(4-sulfamoylphenyl)acetamide]	320 nM	67.6 nM	688 nM	5.6 nM
CC(C)c1ccc(/C=C2/SC(=S)N(CC(=O)Nc3ccc(S(N)(=O)=O)cc3)C2=O)cc1 [7l, (E)-2-(5-(4-Isopropylbenzylidene)-4-oxo-2-thioxothiazolidin-3-yl)-N-(4-sulfamoylphenyl)acetamide]	68.6 nM	41.6 nM	430 nM	51.5 nM
NS(=O)(=O)c1ccc(NC(=O)CN2C(=O)/C(=C\c3cccc(Oc4ccccc4)c3)SC2=S)cc1 [7m, (E)-2-(4-Oxo-5-(3-phenoxybenzylidene)-2-thioxothiazolidin-3-yl)-N-(4-sulfamoylphenyl)acetamide]	55.5 nM	47 nM	471 nM	28.2 nM
NS(=O)(=O)c1ccc(NC(=O)CN2C(=O)/C(=C\c3ccc(OC(F)(F)F)cc3)SC2=S)cc1 [7c, (E)-2-(4-Oxo-2-thioxo-5-(4-(trifluoromethoxy)benzylidene)thiazolidin-3-yl)-N-(4-sulfamoylphenyl)acetamide]	954 nM	158 nM	2410 nM	9.7 nM
NS(=O)(=O)c1ccc(NC(=O)CN2C(=O)/C(=C\c3ccc(C(F)(F)F)cc3)SC2=S)cc1 [7e, (E)-2-(4-Oxo-2-thioxo-5-(4-(trifluoromethyl)benzylidene)thiazolidin-3-yl)-N-(4-sulfamoylphenyl)acetamide]	77.5 nM	9.6 nM	854 nM	8 nM
COc1ccc(/C=C2/SC(=S)N(CC(=O)Nc3ccc(S(N)(=O)=O)cc3)C2=O)c(OC)c1 [7p, (E)-2-(5-(2,4-Dimethoxybenzylidene)-4-oxo-2-thioxothiazolidin-3-yl)-N-(4-sulfamoylphenyl)acetamide]	8 nM	9.8 nM	386 nM	17.7 nM
CCOc1cc(/C=C2/SC(=S)N(CC(=O)Nc3ccc(S(N)(=O)=O)cc3)C2=O)ccc1O [7h, (E)-2-(5-(3-Ethoxy-4-hydroxybenzylidene)-4-oxo-2-thioxothiazolidin-3-yl)-N-(4-sulfamoylphenyl)acetamide]	7.3 nM	63.7 nM	22.4 nM	5.6 nM
COc1cc(/C=C2/SC(=S)N(CC(=O)Nc3ccc(S(N)(=O)=O)cc3)C2=O)cc(OC)c1OC [7g, (E)-2-(4-Oxo-2-thioxo-5-(3,4,5-trimethoxybenzylidene)thiazolidin-3-yl)-N-(4-sulfamoylphenyl)acetamide]	31.6 nM	46 nM	173 nM	4.2 nM

The next lines start with the values.

Ki (hCA II)	Ki (hCA XII)	Ki (hCA I)	Ki (hCA IX)	Structure (SMILES)
4.3 nM	56.2 nM	41.6 nM	4.7 nM	NS(=O)(=O)c1ccc(NC(=O)CN2C(=O)/C(=C3/C(=O)Nc4ccccc43)SC2=S)cc1 [9a, (Z)-2-(4-Oxo-5-(2-oxoindolin-3-ylidene)-2-thioxothiazolidin-3-yl)-N-(4-sulfamoylphenyl)acetamide]
19.6 nM	9.6 nM	213 nM	13.5 nM	NS(=O)(=O)c1ccc(NC(=O)CN2C(=O)/C(=C\c3ccc(F)c(F)c3)SC2=S)cc1 [7r, (E)-2-(5-(3,4-Difluorobenzylidene)-4-oxo-2-thioxothiazolidin-3-yl)-N-(4-sulfamoylphenyl)acetamide]
8.9 nM	9.5 nM	70.6 nM	7.7 nM	NS(=O)(=O)c1ccc(NC(=O)CN2C(=O)/C(=C\c3ccc([N+](=O)[O-])cc3)SC2=S)cc1 [7u, (E)-2-(5-(4-Nitrobenzylidene)-4-oxo-2-thioxothiazolidin-3-yl)-N-(4-sulfamoylphenyl)acetamide]
14.6 nM	9 nM	77.9 nM	8.4 nM	NS(=O)(=O)c1ccc(NC(=O)CN2C(=O)/C(=C\c3cccc([N+](=O)[O-])c3)SC2=S)cc1 [7s, (E)-2-(5-(3-Nitrobenzylidene)-4-oxo-2-thioxothiazolidin-3-yl)-N-(4-sulfamoylphenyl)acetamide]
5.5 nM	40.6 nM	92.2 nM	8.9 nM	Cc1ccc2c(c1)/C(=C1/SC(=S)N(CC(=O)Nc3ccc(S(N)(=O)=O)cc3)C1=O)C(=O)N2 [9b, (Z)-2-(5-(5-Methyl-2-oxoindolin-3-ylidene)-4-oxo-2-thioxothiazolidin-3-yl)-N-(4-sulfamoylphenyl)acetamide]
67.8 nM	37.8 nM	319 nM	13.3 nM	NS(=O)(=O)c1ccc(NC(=O)CN2C(=O)/C(=C3/C(=O)Nc4ccc(C(F)(F)F)cc43)SC2=S)cc1 [9c, (Z)-2-(4-Oxo-5-(2-oxo-5-(trifluoromethyl)indolin-3-ylidene)-2-thioxothiazolidin-3-yl)-N-(4-sulfamoylphenyl)acetamide]
9.6 nM	30.2 nM	77.5 nM	7.2 nM	COc1cc(/C=C2/SC(=S)N(CC(=O)Nc3ccc(S(N)(=O)=O)cc3)C2=O)cc(OC)c1O [7t, (E)-2-(5-(4-Hydroxy-3,5-dimethoxybenzylidene)-4-oxo-2-thioxothiazolidin-3-yl)-N-(4-sulfamoylphenyl)acetamide]
5.2 nM	26.3 nM	35.8 nM	6 nM	NS(=O)(=O)c1ccc(NC(=O)CN2C(=O)/C(=C3/C(=O)Nc4ccc(Cl)cc43)SC2=S)cc1 [9d, (Z)-2-(5-(5-Chloro-2-oxoindolin-3-ylidene)-4-oxo-2-thioxothiazolidin-3-yl)-N-(4-sulfamoylphenyl)acetamide]
